These results are taken from patent publication US20180360855A1, “THE FORMULATION COMPRISING PHOSPHOMYCINE AND ASCORBIC ACID FOR THE TREATMENT OF BACTERIAL URINARY SYSTEM INFECTIONS” (priority 2015, published 2018).

Series [1] in a line: pH of solutions of Phosphomycine Trometamol with and without ascorbic acid in water. Format: physicochemical.
The subject of the next series is susceptible bacteria. Particulars: cited from earlier work.

For `C[C@@H]1O[C@@H]1P(=O)(O)O` [Phosphomycine Trometamol, Phosphomycine trometamol], in series [1] (5.631 g Phosphomycine Trometamol (+ 1.0 g ascorbic acid) in 50 ml water), the “pH in 50 ml water” value was determined as 3.608. Further, the “pH in 100 ml water” value in series [1] (5.631 g Phosphomycine Trometamol (+ 1.0 g ascorbic acid) in 100 ml water) stood at 3.743. The “pH in 150 ml water” value in series [1] (5.631 g Phosphomycine Trometamol (+ 1.0 g ascorbic acid) in 150 ml water) was determined as 3.824.

Take `C[C@@H]1O[C@@H]1P(=O)(O)O` [Phosphomycine]: the “efficiency in vitro depending on environmental conditions” value with susceptible bacteria (in the presence of Alkali pH, glycose, phosphate, and sodium chloride) is “reduced”. For the same compound, the “time in which efficiency on susceptible bacteria is shown” value with susceptible bacteria (in vitro studies) is 30 min.
